Reference: a melting point compilation (Tetko et al.; mined from patent text by program, amines drawn as free bases though some values may be those of a salt)

melting point [°C]	Structure (SMILES)
78	CNC(=O)C(=O)c1ccccc1COc1ccccc1
142	Cc1cccc(NC(=O)NCCC(=O)N(CC(=O)OC(C)(C)C)c2ccccc2)c1
178 to 180	COc1ccccc1[C@H](C)C(=O)N1C[C@@H]2[C@H](C1)C(c1ccccc1)(c1ccccc1)C[C@H](O)[C@@]2(O)c1ccccc1OC
282	CC1CCCC(Cc2c[nH]c3c(=O)[nH]c(N)nc23)C1 (stereo not given)
> 210	Nc1nc(C(=Cc2c(Cl)ccc(Cl)c2Cl)C(=O)O)cs1
167	O=Cc1cnc2c(OCc3ccccc3)cccn12
100 to 103	COc1ccc(-c2ccc(-c3ccccc3)nc2-c2ccc(OCCN3CCCC3)cc2)cc1
148	CSc1ccc(-c2nn(Cc3cccnc3)c(=O)cc2-c2ccc(Cl)cc2)cc1
72 to 74	COc1cc2c(cc1OC)C(C(=O)Nc1c(C(C)C)cccc1C(C)C)SCC2 (stereo not given)
256 to 265	O=c1oc2cccc(O)c2c(O)c1-c1ccccc1
122 to 123	CCn1nnnc1SCc1c(S(C)(=O)=O)ccc(C(=O)OC2=CC(=O)CCC2)c1Cl
252	CCOC(=O)N1CCc2nc3ccccc3c(O)c2CC1
140	CN1CCCN(Cc2c(Cl)ccc(C(=O)C3=C(Sc4ccccc4)CCCC3=O)c2Cl)C1=O
117 to 118	CSc1ccc2c(c1)C(O)c1ccccc1C=C2 (stereo not given)
124	CCCCCc1cnc(-c2ccc(-c3ccc(C#N)cc3)cc2)nc1
98 to 104	COc1ccc(CN2CCN(CCC(c3ccccc3)c3ccccc3)CC2)cc1OC
146	CCCCCC#CCC(Cc1cccnc1)(C(=O)NO)S(=O)(=O)c1ccc(OC)cc1 (stereo not given)
59 to 64	C=CC[N+]([O-])(CCCCCCCCCCCCCCCCCC)CCCCCCCCCCCCCCCCCC
129 to 136	C=CC1CC2=C(CC=C(OC)C2)C2CCC3(C)C(=CCC3O)C12 (stereo not given)
106	N#CC1(c2ccc(C(=O)c3cccs3)cc2)CC1
195 to 197	COc1cn(-c2ccncc2)nc(-c2ccnn2-c2ccccc2)c1=O
228 to 234	Cn1nc2c(N)nc3c(c2c1CC(C)(C)O)CCCC3
182 to 187	COc1cn(-c2ccc(N3CCCC(F)(F)C3)cc2F)nc(-c2ccnn2-c2ccccc2)c1=O
134 to 136	COc1ccc(Cn2c(-c3ccco3)nc3c(-c4ccco4)ncnc32)cc1

melting point [°C]	Structure (SMILES)
135 to 136	CC(CNC(=O)OC(C)(C)C)C(=O)NC(CC(=O)OCc1ccccc1)C(N)=O (mixture of isomers)
27.1 to 27.7	CCCCCCCCCCCCCC[C@@H]1CO[C@@H](CO)C1 (relative stereo)
143 to 146	O=c1c(Br)c(OCc2ccccc2Cl)ccn1Cc1ccccc1
178 to 180	CC(C)(C#N)Cc1ccc2cc(CC(C)(C)C#N)ccc2c1
173	C[Si](C)(C)CCOC(=O)c1cccc(NC(=O)NCC(=O)O)c1
153 to 156	CC(=O)NCCc1c[nH]c2ccc(OC(=O)Oc3ccc([N+](=O)[O-])cc3)cc12
184 to 186	OCC1OC(n2c(NC3CC3)nc3cc(Cl)c(Cl)cc32)C(O)C1O (stereo not given)
264 to 266	Cc1cc2c3c(c1N)c(=O)c(C(=O)O)cn3C(C)CC2 (stereo not given)
59 to 60	CC(C)c1sc(C#N)c2c1C(=O)CC(C)(C)C2
116 to 118	CC(C)c1nc(CNS(C)(=O)=O)n(C)c1Sc1cc(Cl)cc(Cl)c1
268	NC1=C(NC=O)C(=O)N2CCN=C2N1
140 to 142	CC(=O)Nc1c(C(N)=O)nnn1Cc1ccccc1Cl
147 to 151	O=C(Cc1cc(C(=O)c2ccc(I)c([N+](=O)[O-])c2)sc1-c1ccccc1)NO
180 to 183	Cc1cc(Cl)c(S(C)(=O)=O)cc1C(=O)O
205 to 211	Cc1ncc(CN2CCc3cc(-c4cc(Cl)cc(Cl)c4)ccc3C2)c(N)n1
131 to 132	Cc1oc(-c2ccccc2)nc1COc1ccc(CON=C(CCC(=O)O)c2ccc(Oc3ccccc3)cc2)cc1
159	CC(C)c1[nH]c(Cl)c(C#N)c1SC#N
215 to 217	CC1CC(=O)NN=C1c1ccc(NC(=O)CCBr)cc1 (stereo not given)
135 to 136	Cc1ccccc1-c1ccc(C(=O)N2Cc3ccc(C(=O)CCc4cccnc4)n3Cc3ccccc32)cc1
95 to 96.5	CCN(CC)Cc1cc(C(=O)c2ccc(Cl)cc2)cc(C(C)(C)C)c1O
70.5 to 71.5	O=C(Cc1ccc(Cl)c(Cl)c1)N1C(=O)OC[C@@H]1Cc1ccccc1
226	CC(=O)N1CCc2cc(S(=O)(=O)n3c(CCCC(=O)O)cc4nc(Cl)ccc43)ccc21
196 to 198	COc1cc(CNC(=O)c2nc3sccc3c(=O)[nH]2)ccc1Br
91 to 93	CCCCCCCCCCCCCCOc1cc(OCCCOc2ccc(O)cc2)cc(C(=O)O)c1

melting point [°C]	Structure (SMILES)
166 to 167	Nc1ccc(-c2ccnc(-c3ccc(C(F)(F)F)cc3)n2)cc1
> 300	CNC1(C)CN(c2c(F)cc3c(=O)c(C(=O)O)cn(C4CC4)c3c2F)C1
184	CNC1c2ccccc2-c2[nH]c(=O)c3nccn3c21 (stereo not given)
215	O=C(c1cc(=O)c2cc3[nH]c(=O)oc3cc2[nH]1)N1CCC(Cc2ccccc2)CC1
143 to 147	CC(C)(CN1CCCCC1)Nc1ccnc2cc(Cl)ccc12
153 to 155	CS(=O)(=O)O[C@@H]([C@H](OS(C)(=O)=O)[C@H](Cc1ccccc1)NC(=O)OCc1ccccc1)[C@H](Cc1ccccc1)NC(=O)OCc1ccccc1
129 to 136	CCNC(=O)c1cccc(C2(c3ccc(OC(F)(F)F)cc3)N=C(N)N3CCCN=C32)c1 (stereo not given)
118 to 120	Cc1ccc2nc3n(c2c1)CCC3
232 to 234	CN1CCC[C@H]1c1cnccc1C(O)(c1ccccc1)c1ccccc1
232	CC(C)(CO)NS(=O)(=O)c1cccc(NC(=O)c2cnn3c(C(F)F)cc(-c4ccc(C(F)(F)F)cc4)nc23)c1
169 to 172	c1cc(COc2cccc(-c3nnn[nH]3)c2)cc(OCc2ccc3ccccc3n2)c1
170	COc1cc(C(=O)Nc2c(Cl)cncc2Cl)ccc1OC(F)F
156	CC1(OCC(F)(F)F)C=NC(c2cc(-c3ccc(S(C)(=O)=O)cc3)c(N3CCOCC3)s2)=CC1 (stereo not given)
146	ClC1c2ccccc2C=Cc2ccc(Br)cc21 (stereo not given)
148 to 151	CC(=O)NC[C@H]1CN(c2ccc(C3=CCOCC3)c(F)c2)C(=O)O1
139 to 142	Cc1c(-c2ccccc2)c(N2CC[C@H](N(C)C)C2)c2oc(-c3ccccc3[N+](=O)[O-])nc2c1C#N
154 to 156	CCc1oc(C)cc(=O)c1C(=O)Nc1ccccc1
103	COC(=O)Cc1sc(=O)[nH]c1COc1ccccc1
188	COc1cc(-c2nnc3n2CCC[C@]3(Oc2cc(F)c(F)c(F)c2)C(C)(C)O)ccc1-c1cnc(C)o1
235 to 237	Cc1nc(-c2n[nH]c(Cc3ccccc3)n2)sc1C(=O)NCc1ccccc1
175 to 178	COC(=O)C1=C(C)NC(c2cnc(Cl)s2)=NC1c1ccc(F)cc1 (stereo not given)
45.5 to 46.5	CCCCCCCCCCCCCCc1ccc(O)c(CC)c1
147 to 149	O=[N+]([O-])c1c(Nc2ccc3[nH]ccc3c2)ncnc1-c1ccc(C(F)(F)F)cc1F
241 to 242	NS(=O)(=O)c1cc(C(=O)O)cc(SCc2ccccc2)c1Cl

melting point [°C]	Structure (SMILES)
320 to 325	CN(C)CC(=O)NCc1ccc(-c2cc3c(Nc4ccc(F)c(Cl)c4)ncnc3[nH]2)cc1
191	CCOC(=O)c1c(N[C@H]2CC[C@@H](c3ccccc3)CC2)ccnc1C
198 to 200	Cc1ccc(-c2ncc3c(n2)CCCCC3)nc1-c1ccncc1
118 to 120	CC(C)C1C(=O)N(CCl)S(=O)(=O)N1C (stereo not given)
176 to 178	CCOC(=O)N1C(=NC#N)NC(C)=C(C(=O)OC)C1c1cccc(Cl)c1Cl (stereo not given)
120 to 122	Cc1cc(OC(=O)c2ccccc2)ccc1O
> 250	Nc1nc(N)c2cc(CCc3ccc(C(=O)N[C@@H](CCC(=O)O)C(=O)O)cc3)cnc2n1
43 to 44	CC=C(c1ccc(F)cc1)c1ccc(F)cc1
111	CCCc1cc([N+](=O)[O-])cc2cc(C(=O)OCC)oc12
233	COc1ccc(C=CC(=O)N2CCc3c([nH]c4ccccc34)C2c2ccc3c(c2)OCO3)cc1OC (stereo not given)
139 to 141	CC(C)(C)OC(=O)Nc1ccc2ccc(C#N)cc2c1Br
170 to 171	C#Cc1cnc(C)c(O)c1CO
194	CCOC(=O)c1[nH]cc2c1NC1=C(C(=O)CCC1)C2c1cnc(Sc2nc3ccccc3[nH]2)s1 (stereo not given)
71 to 72	COCCCCCC=C(NC(=O)C1CC1(C)C)C(=O)O (stereo not given)
167 to 168	O=S1(=O)N=CN(C2CC2)c2cc(F)cc(F)c21
48 to 50	COc1cc(CO)c(OC)c(CCl)c1
100 to 103	[N-]=[N+]=NC(=O)c1ccc2c(c1)C(=O)OC2=O
149	CC(C)c1ccc(S(=O)(=O)Nc2ccc(Cl)cc2I)cc1
130 to 132	COC1(c2cncnc2SC)c2ccccc2CC1(C)C (stereo not given)
137 to 138	CCOc1ccccc1C1CN=C(NC(=O)OC)N1C (stereo not given)
154	CC(C)(CCCCCCCCCCC(C)(C)C(Cl)(Cl)C(=O)O)C(Cl)(Cl)C(=O)O
50 to 52	Clc1ncnc(Cl)c1Cl

Structure (SMILES)	melting point [°C]
CN1C(=O)CC(=O)N(c2ccccc2)c2cc(Cl)ccc21	166 to 168
CC12CCC3C(CCC4CC(I)CCC43C)C1CCC2=O (stereo not given)	123 to 125
Cc1[nH]cnc1C(c1ccccc1)c1ccccc1	198 to 204
CCCNCC(O)c1ccc(Br)cc1 (stereo not given)	72.5 to 74.5
CCCN(c1c([O-])[c+](N(CCC)C2CC(C)(C)NC(C)(C)C2)[c+]1[O-])C1CC(C)(C)NC(C)(C)C1	198 to 199
Cc1cccc2c1C(=O)N1CCC[C@H]1c1c(C(=O)OC(C)(C)C)ncn1-2	192 to 194
